Laboratory results reported in patent US11136325B2, “Pyrrolopyrimidine and pyrrolopyridine derivatives” (GALAPAGOS NV, priority 2017, dated 2021).

Tests used:
ASK2 [1] = target: T1, ASK2 (Homo sapiens (Human), UniProt O95382); experiment: ASK2 biochemical assay (AlphaScreen technology, MKK7 phosphorylation); settings: 150 μM ATP, 400 nM MKK7, 2 nM ASK2
Description: ASK1 and ASK2 biochemical activities were also quantified using AlphaScreen technology which measures the degree of phosphorylation of a protein substrate (MKK7). AlphaScreen technology is based on the binding of a substrate to two types of beads, acceptor and donor. Binding to one bead is through the tag of the substrate protein. Binding of the second bead is through phosphospecific binding of antibody to the phosphosite of the substrate. This forms a sandwich, with the acceptor and donor beads in close proximity. When the donor beads are excited by light in the 680 nm range, a singlet oxygen is released and causes emission of light from the acceptor in the 620 nm range which can be detected using a suitable plate reader.
The phosphorylation site on MKK7 (Ser271/Thr275) is then recognised by a phosphospecific antibody. The phosphospecific antibody is bound to the AlphaScreen acceptor beads through a Protein-A interaction. Phosphorylation of MKK7 by ASK1 or ASK2 subsequently facilitates the bringing together of the donor and acceptor beads into close proximity whereupon the transfer of the singlet oxygen leads to the generation of the AlphaScreen signal.
The assay was configured to run using the following conditions (final concentrations): 150 μM ATP; 400 nM MKK7; 0.8 nM ASK1 and 2 nM ASK2.
100 nL of test compound (starting concentration 6 μM, 11 concentrations with 3 fold serial dilutions) in 100% DMSO was added to low volume 384 well plates. 2.5 μl of ASK1 or ASK2 was added to each well except in the control wells to which 2.5 μl buffer was added. 2.5 μl of MKK7 solution was added to all wells. The plate was incubated for 60 minutes at room temperature. Protein-A acceptor beads and phospho-specific antibody were incubated for 30 minutes and then 2.5 μl of Protein-A acceptor beads/phospho-specific antibody mix (2.5 μg/ml acceptor beads final concentration and 1/800 antibody final dilution) was added to each well. […] The plate was incubated for a further 60 minutes at room temperature, following which the plate was read on a Perkin Elmer Enspire plate reader. […]

ASK2 [2] = target: T1, ASK2; experiment: ASK2 biochemical assay (IMAP technology); settings: 25 nM hASK2
Description: IMAP® technology provides a homogeneous assay applicable to a wide variety of kinases, phosphatases, and phosphodiesterases without regard for substrate peptide sequence. The assay is a simple mix-and-read procedure allowing accurate determination of enzyme activity. Based on the specific, high-affinity interaction of phospho groups with trivalent metal-containing nanoparticles (beads), IMAP is a generic, non-antibody-based platform to assess kinase, phosphatase, and phosphodiesterase activity. An enzyme reaction is performed using fluorescently labeled substrate. Addition of the IMAP Binding System stops the enzyme reaction and initiates binding of the beads to phosphorylated substrates. Binding of the substrate to the beads, which correlates to enzyme activity, can be detected using either FP or TR-FRET as a readout.
KIT IMAP FP, Cat. No. R8127; Reaction Buffer-Tween (5× conc.), Molecular Devices, Cat. No. R7436; Diluted 1:5 with H2O and containing DTT (1 mM from 1M stock); Progressive Binding Buffer (PBB) A (5× conc.), Molecular Devices, Cat. No. R7282; Progressive Binding Reagent (PB Reagent), Molecular Devices, Cat. No. R7284; Enzyme Solution (containing 2× Ask1 in Reaction buffer); Substrate Solution (containing 2× peptide substrate in Reaction buffer, and 2×150 μM ATP in Reaction buffer); Bead Buffer (Progressive Binding Buffer A diluted 1:5 with H2O); Bead Solution (Bead Buffer containing 1:200 Progressive Binding Reagent (2×))
100 nL of test compound in 100% DMSO was added to 384-well plates. […] The plates were then incubated for 2 h at room temperature after which time the plates were read on a Perkin Elmer EnVision plate reader.
Calculation of IC50 data, curves and QC analysis was made by using Excel tools and GraphPadPrism software, v. […] Calculated results: Calc 1: mP value for FP measurement=1000*(S−G*P)/(S+G*P) where S=<detector 2 or FP-BodipyTAMRA_Ex531-Em579-optimized(1) channel 2>P=<detector 1 or FP-BodipyTAMRA_Ex531-Em579-optimized(1) channel 1>G=G-factor. […] Top constrain is used only if top values are not correctly calculated. […]

T1 sequence (O95382 whole entry): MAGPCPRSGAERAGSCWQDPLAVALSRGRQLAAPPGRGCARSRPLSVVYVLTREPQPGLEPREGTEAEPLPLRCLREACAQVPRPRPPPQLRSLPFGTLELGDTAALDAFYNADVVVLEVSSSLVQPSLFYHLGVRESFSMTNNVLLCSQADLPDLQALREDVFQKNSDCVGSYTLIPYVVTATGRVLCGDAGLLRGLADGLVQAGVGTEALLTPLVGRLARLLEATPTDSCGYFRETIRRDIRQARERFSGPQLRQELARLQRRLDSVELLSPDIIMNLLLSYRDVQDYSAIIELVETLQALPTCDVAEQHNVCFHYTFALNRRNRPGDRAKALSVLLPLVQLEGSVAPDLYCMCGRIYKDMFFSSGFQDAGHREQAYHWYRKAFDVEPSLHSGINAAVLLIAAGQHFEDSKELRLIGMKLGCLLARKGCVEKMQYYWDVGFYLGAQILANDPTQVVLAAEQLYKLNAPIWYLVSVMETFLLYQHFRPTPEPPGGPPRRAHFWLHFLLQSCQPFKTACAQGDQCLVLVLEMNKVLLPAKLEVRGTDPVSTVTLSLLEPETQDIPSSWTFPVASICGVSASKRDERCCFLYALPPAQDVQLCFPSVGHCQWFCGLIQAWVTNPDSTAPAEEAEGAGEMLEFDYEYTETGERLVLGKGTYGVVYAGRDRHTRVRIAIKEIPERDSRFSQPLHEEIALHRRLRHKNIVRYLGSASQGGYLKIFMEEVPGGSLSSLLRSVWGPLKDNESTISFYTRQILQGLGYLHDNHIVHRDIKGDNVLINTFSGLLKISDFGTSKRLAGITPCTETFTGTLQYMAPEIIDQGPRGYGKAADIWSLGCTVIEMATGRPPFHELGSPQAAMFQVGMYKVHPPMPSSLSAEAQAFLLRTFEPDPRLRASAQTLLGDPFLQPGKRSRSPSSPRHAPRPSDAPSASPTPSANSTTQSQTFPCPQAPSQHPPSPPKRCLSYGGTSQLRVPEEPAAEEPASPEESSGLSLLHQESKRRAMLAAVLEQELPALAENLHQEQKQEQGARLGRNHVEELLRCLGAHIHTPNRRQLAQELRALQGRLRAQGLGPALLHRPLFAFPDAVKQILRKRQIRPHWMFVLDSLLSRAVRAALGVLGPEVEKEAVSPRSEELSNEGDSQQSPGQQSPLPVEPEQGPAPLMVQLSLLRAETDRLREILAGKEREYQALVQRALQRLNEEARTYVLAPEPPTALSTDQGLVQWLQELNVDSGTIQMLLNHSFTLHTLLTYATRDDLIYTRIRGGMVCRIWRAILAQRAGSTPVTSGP

| Inhibition (pIC50) ASK2 (ASK2 [1]) | Inhibition (pIC50) ASK2 (ASK2 [2]) | SMILES |
| --- | --- | --- |
| 7.8 | – | Cc1c[nH]c2ncnc(N3CCC(NC(=O)c4cc(N)ncc4Cl)CC3)c12 [Compound 3, 2-amino-5-chloro-N-[1-(5-methyl-7H-pyrrolo[2,3-d]pyrimidin-4-yl)-4-piperidyl]-pyridine-4-carboxamide] |
| 7.71 | 7.96 | Cc1c[nH]c2ncnc(N3CCC(NC(=O)c4cc(N)ncc4F)CC3)c12 [Compound 1, 2-amino-5-fluoro-N-[1-(5-methyl-7H-pyrrolo[2,3-d]pyrimidin-4-yl)-4-piperidyl]pyridine-4-carboxamide] |
| 8.2 | 8.19 | Nc1cc(C(=O)NC2CCN(c3ncnc4[nH]cc(Cl)c34)CC2)ccn1 [Compound 4, 2-amino-N-[1-(5-chloro-7H-pyrrolo[2,3-d]pyrimidin-4-yl)-4-piperidyl]pyridine-4-carboxamide] |
| – | 8.08 | Cc1cnc(N)cc1C(=O)NC1CCN(c2ncnc3[nH]cc(C)c23)CC1 [Compound 2, 2-amino-5-methyl-N-[1-(5-methyl-7H-pyrrolo[2,3-d]pyrimidin-4-yl)-4-piperidyl]pyridine-4-carboxamide] |
